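How tested: cells in 96-well plates exposed to compound for 48 hours at five concentrations. At the TGI there is no net growth.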
Columns and labels:
Test in all cases: DTP human tumour cell line panel, 48 h
786-0 renal = test system: 786-0 renal
A498 renal = test system: A498 renal
A549 NSCLC = test system: A549 NSCLC
ACHN renal = test system: ACHN renal
BT-549 breast = test system: BT-549 breast
CAKI-1 renal = test system: CAKI-1 renal
CCRF-CEM leukemia = test system: CCRF-CEM leukemia
COLO 205 colon = test system: COLO 205 colon
DU-145 prostate = test system: DU-145 prostate
EKVX NSCLC = test system: EKVX NSCLC
HCC-2998 colon = test system: HCC-2998 colon
HCT-116 colon = test system: HCT-116 colon
HCT-15 colon = test system: HCT-15 colon
HL-60(TB) leukemia = test system: HL-60(TB) leukemia
HOP-62 NSCLC = test system: HOP-62 NSCLC
HOP-92 NSCLC = test system: HOP-92 NSCLC
HS 578T breast = test system: HS 578T breast
HT29 colon = test system: HT29 colon
IGROV1 ovarian = test system: IGROV1 ovarian
K-562 leukemia = test system: K-562 leukemia
KM12 colon = test system: KM12 colon
LOX IMVI melanoma = test system: LOX IMVI melanoma
M14 melanoma = test system: M14 melanoma
MALME-3M melanoma = test system: MALME-3M melanoma
MCF7 breast = test system: MCF7 breast
MDA-MB-231 breast = test system: MDA-MB-231 breast
MDA-MB-435 = test system: MDA-MB-435
MDA-N = test system: MDA-N
MOLT-4 leukemia = test system: MOLT-4 leukemia
NCI-H226 lung = test system: NCI-H226 lung
NCI-H23 lung = test system: NCI-H23 lung
NCI-H460 lung = test system: NCI-H460 lung
NCI-H522 lung = test system: NCI-H522 lung
NCI/ADR-RES ovarian = test system: NCI/ADR-RES ovarian
OVCAR-3 ovarian = test system: OVCAR-3 ovarian
OVCAR-4 ovarian = test system: OVCAR-4 ovarian
OVCAR-5 ovarian = test system: OVCAR-5 ovarian
OVCAR-8 ovarian = test system: OVCAR-8 ovarian
PC-3 prostate = test system: PC-3 prostate
RPMI-8226 leukemia = test system: RPMI-8226 leukemia
RXF 393 renal = test system: RXF 393 renal
SF-268 CNS = test system: SF-268 CNS
SF-295 CNS = test system: SF-295 CNS
SK-MEL-2 melanoma = test system: SK-MEL-2 melanoma
SK-MEL-28 melanoma = test system: SK-MEL-28 melanoma
SK-MEL-5 melanoma = test system: SK-MEL-5 melanoma
SK-OV-3 ovarian = test system: SK-OV-3 ovarian
SN12C renal = test system: SN12C renal
SNB-19 CNS = test system: SNB-19 CNS
SNB-75 CNS = test system: SNB-75 CNS
SW-620 colon = test system: SW-620 colon
T-47D breast = test system: T-47D breast
TK-10 renal = test system: TK-10 renal
U251 CNS = test system: U251 CNS
UACC-257 melanoma = test system: UACC-257 melanoma
UACC-62 melanoma = test system: UACC-62 melanoma
UO-31 renal = test system: UO-31 renal

Measured: TGI

O=C(O)CCSCc1ccc(I)cc1
> 100 µM: all assays above

O=C(O)c1ccc([N+]2=Cn3c(nc4ccccc43)C2)cc1
3.05 µM: MALME-3M melanoma
not listed: HOP-92 NSCLC | MOLT-4 leukemia
> 100 µM: all other assays above
